Test results taken from patent US6737383B1, “Herbicidal oxadiazolidines” (priority 1999, dated 2004).

How the values were obtained:
blackgrass = test: Test B pre/postemergence blackgrass; format: in vivo, Alopecurus myosuroides
How it was run: (§1)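 Test chemicals in a non-phytotoxic solvent mixture with surfactant were sprayed preemergence onto planted seeds and postemergence onto plants 2 to 18 cm tall (1- to 4-leaf stage). After twelve to sixteen days in a greenhouse, injury was visually rated against untreated controls from 0 (no effect) to 10 (complete control).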

cocklebur = test: Test B pre/postemergence cocklebur; format: in vivo, Xanthium strumarium
How it was run: as §1

crabgrass = test: Test B pre/postemergence crabgrass; format: in vivo, Digitaria sanguinalis
How it was run: as §1

wild oat = test: Test B pre/postemergence wild oat; format: in vivo, Avena fatua
How it was run: as §1

giant foxtail = test: Test B pre/postemergence giant foxtail; format: in vivo, Setaria faberii
How it was run: as §1

soybean = test: Test B pre/postemergence soybean; format: in vivo, Glycine max
How it was run: as §1

pigweed = test: Test B pre/postemergence pigweed; format: in vivo, Amaranthus retroflexus
How it was run: as §1

surinam grass = test: Test B pre/postemergence surinam grass; format: in vivo, Brachiaria decumbens
How it was run: as §1

duck salad = test: Test B flood test duck salad; format: in vivo, Heteranthera limosa
How it was run: (§2)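 Plants were grown to the 2-leaf stage before treatment with test chemical, then held in a greenhouse for twelve to sixteen days. Injury was visually rated against untreated controls on a 0–10 scale, where 0 is no effect and 10 is complete control.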

sugar beet = test: Test B pre/postemergence sugar beet; format: in vivo, Beta vulgaris
How it was run: as §1

wheat = test: Test B pre/postemergence wheat; format: in vivo, Triticum aestivum
How it was run: as §1

corn = test: Test B pre/postemergence corn; format: in vivo, Zea mays
How it was run: as §1

velvetleaf = test: Test B pre/postemergence velvetleaf; format: in vivo, Abutilon theophrasti
How it was run: as §1

bedstraw = test: Test B pre/postemergence bedstraw; format: in vivo, Galium aparine
How it was run: as §1

rice = test: Test B flood test rice; format: in vivo, Oryza sativa
How it was run: as §2

purple nutsedge = test: Test B pre/postemergence purple nutsedge; format: in vivo, Cyperus rotundus
How it was run: as §1

[1] = Postemergence, Rate 62 g/ha, scale 0 to 10, 0 is no effect, 10 is complete control
[2] = Postemergence, Rate 250 g/ha, scale 0 to 10, 0 no effect, 10 complete control
[3] = Preemergence, Rate 62 g/ha, scale 0 to 10 (0 no effect, 10 complete control)
[4] = Preemergence, Rate 125 g/ha, scale 0 to 10 (0 no effect, 10 complete control)
[5] = Preemergence, Rate 250 g/ha, scale of 0 to 10 where 0 is no effect and 10 is complete control
[6] = Preemergence, Rate 500 g/ha, scale 0 (no effect) to 10 (complete control)
[7] = Rate 125 g/ha, Postemergence, scale 0 to 10, 0 no effect, 10 complete control
[8] = Rate 500 g/ha, Postemergence, scale 0 to 10, 0 no effect, 10 complete control
[9] = Rate 125 g/ha, Postemergence section (flood test species), scale 0 to 10, 0 no effect, 10 complete control
[10] = Rate 500 g/ha, listed under Postemergence (flood test species), scale 0 to 10, 0 no effect, 10 complete control
[11] = flood test, listed under Postemergence, Rate 250 g/ha, scale 0 to 10, 0 no effect, 10 complete control

Cc1cccc(C(C)C)c1-n1c(=O)on(C(=O)N(c2ccccc2)C(C)C)c1=O [Compound 66]
Blackgrass plant response rating (blackgrass; [1]): 0
Blackgrass plant response rating (blackgrass; [2]): 2
Blackgrass plant response rating (blackgrass; [3]): 0
Plant response rating, Blackgrass (blackgrass; [4]): 0
Plant response rating, Blackgrass (blackgrass; [5]): 0
Blackgrass plant response rating (blackgrass; [6]): 0
Blackgrass plant response rating (blackgrass; [7]): 0
Blackgrass plant response rating (blackgrass; [8]): 3
Cocklebur plant response rating (cocklebur; [1]): 0
Cocklebur plant response rating (cocklebur; [2]): 0
Cocklebur plant response rating (cocklebur; [3]): 0
Plant response rating, Cocklebur (cocklebur; [4]): 0
Plant response rating, Cocklebur (cocklebur; [5]): 0
Cocklebur plant response rating (cocklebur; [6]): 0
Cocklebur plant response rating (cocklebur; [7]): 0
Cocklebur plant response rating (cocklebur; [8]): 0
Crabgrass plant response rating (crabgrass; [1]): 0
Crabgrass plant response rating (crabgrass; [2]): 0
Crabgrass plant response rating (crabgrass; [3]): 0
Plant response rating, Crabgrass (crabgrass; [4]): 2
Plant response rating, Crabgrass (crabgrass; [5]): 4
Crabgrass plant response rating (crabgrass; [6]): 8
Crabgrass plant response rating (crabgrass; [7]): 0
Crabgrass plant response rating (crabgrass; [8]): 0
Wild oats plant response rating (wild oat; [1]): 0
Wild oats plant response rating (wild oat; [2]): 0
Wild oats plant response rating (wild oat; [3]): 0
Plant response rating, Wild oats (wild oat; [4]): 0
Plant response rating, Wild oats (wild oat; [5]): 0
Wild oats plant response rating (wild oat; [6]): 2
Wild oats plant response rating (wild oat; [7]): 0
Wild oats plant response rating (wild oat; [8]): 0
Giant foxtail plant response rating (giant foxtail; [1]): 0
Giant foxtail plant response rating (giant foxtail; [2]): 0
Giant foxtail plant response rating (giant foxtail; [3]): 4
Plant response rating, Giant foxtail (giant foxtail; [4]): 4
Plant response rating, Giant foxtail (giant foxtail; [5]): 6
Giant foxtail plant response rating (giant foxtail; [6]): 9
Giant foxtail plant response rating (giant foxtail; [7]): 0
Giant foxtail plant response rating (giant foxtail; [8]): 0
Soybean plant response rating (soybean; [1]): 1
Soybean plant response rating (soybean; [2]): 2
Soybean plant response rating (soybean; [3]): 0
Plant response rating, Soybean (soybean; [4]): 0
Plant response rating, Soybean (soybean; [5]): 0
Soybean plant response rating (soybean; [6]): 0
Soybean plant response rating (soybean; [7]): 1
Soybean plant response rating (soybean; [8]): 3
Redroot pigweed plant response rating (pigweed; [1]): 0
Redroot pigweed plant response rating (pigweed; [2]): 0
Redroot pigweed plant response rating (pigweed; [3]): 0
Plant response rating, Redroot pigweed (pigweed; [4]): 0
Plant response rating, Redroot pigweed (pigweed; [5]): 0
Redroot pigweed plant response rating (pigweed; [6]): 0
Redroot pigweed plant response rating (pigweed; [7]): 0
Redroot pigweed plant response rating (pigweed; [8]): 4
B. signalgrass plant response rating (surinam grass; [1]): 0
B. signalgrass plant response rating (surinam grass; [2]): 0
B. signalgrass plant response rating (surinam grass; [3]): 0
Plant response rating, B. signalgrass (surinam grass; [4]): 0
Plant response rating, B. signalgrass (surinam grass; [5]): 0
B. signalgrass plant response rating (surinam grass; [6]): 0
B. signalgrass plant response rating (surinam grass; [7]): 0
B. signalgrass plant response rating (surinam grass; Rate 500 g/ha, Postemergence, scale of 0 to 10 where 0 is no effect and 10 is complete control): 0
Ducksalad plant response rating (duck salad; [1]): 0
Ducksalad plant response rating (duck salad; [9]): 0
Ducksalad plant response rating (duck salad; [10]): 2
Ducksalad plant response rating (duck salad; [11]): 0
Sugarbeets plant response rating (sugar beet; [1]): 0
Sugarbeets plant response rating (sugar beet; [2]): 0
Sugarbeets plant response rating (sugar beet; [3]): 0
Plant response rating, Sugarbeets (sugar beet; [4]): 0
Plant response rating, Sugarbeets (sugar beet; [5]): 0
Sugarbeets plant response rating (sugar beet; [6]): 0
Sugarbeets plant response rating (sugar beet; [7]): 0
Sugarbeets plant response rating (sugar beet; [8]): 0
Wheat plant response rating (wheat; [1]): 0
Wheat plant response rating (wheat; [2]): 0
Wheat plant response rating (wheat; [3]): 0
Plant response rating, Wheat (wheat; [4]): 0
Plant response rating, Wheat (wheat; [5]): 0
Wheat plant response rating (wheat; [6]): 0
Wheat plant response rating (wheat; [7]): 0
Wheat plant response rating (wheat; [8]): 0
Corn plant response rating (corn; [1]): 0
Corn plant response rating (corn; [2]): 0
Corn plant response rating (corn; [3]): 0
Plant response rating, Corn (corn; [4]): 0
Plant response rating, Corn (corn; [5]): 0
Corn plant response rating (corn; [6]): 0
Corn plant response rating (corn; [7]): 0
Corn plant response rating (corn; [8]): 2
Velvetleaf plant response rating (velvetleaf; [1]): 0
Velvetleaf plant response rating (velvetleaf; [2]): 0
Velvetleaf plant response rating (velvetleaf; [3]): 0
Plant response rating, Velvetleaf (velvetleaf; [4]): 0
Plant response rating, Velvetleaf (velvetleaf; [5]): 0
Velvetleaf plant response rating (velvetleaf; [6]): 0
Velvetleaf plant response rating (velvetleaf; [7]): 0
Velvetleaf plant response rating (velvetleaf; [8]): 2
Bedstraw plant response rating (bedstraw; [1]): 0
Bedstraw plant response rating (bedstraw; [2]): 0
Bedstraw plant response rating (bedstraw; [3]): 0
Plant response rating, Bedstraw (bedstraw; [4]): 0
Plant response rating, Bedstraw (bedstraw; [5]): 0
Bedstraw plant response rating (bedstraw; [6]): 0
Bedstraw plant response rating (bedstraw; [7]): 0
Bedstraw plant response rating (bedstraw; [8]): 2
Rice plant response rating (rice; [1]): 0
Rice plant response rating (rice; [9]): 0
Rice plant response rating (rice; [10]): 0
Rice plant response rating (rice; [11]): 0
Nutsedge plant response rating (purple nutsedge; [1]): 0
Nutsedge plant response rating (purple nutsedge; [2]): 0
Nutsedge plant response rating (purple nutsedge; [3]): 0
Plant response rating, Nutsedge (purple nutsedge; [4]): 0
Nutsedge plant response rating (purple nutsedge; [6]): 6
Nutsedge plant response rating (purple nutsedge; [7]): 0
Nutsedge plant response rating (purple nutsedge; [8]): 0
